Results on 1 compound are retold here after PMC6826616, “Topical 2′-Hydroxyflavanone for Cutaneous Melanoma” (Cancers, 2019).

The subject of one test is B16-F0 cells. In words: EGF-pHrodo endocytosis, B16-F0 (microscopy and flow cytometry). The test is classed as cell-based, mouse. As to conditions: Rlip-antisense, Rlip-shRNA, or 10 µM 2HF for 24 h. The method, then:
Figure 3 Effects of Rlip depletion on epidermal growth factor (EGF) endocytosis of mouse melanoma cells. Representative photomicrographs of Rlip-depleted B16-F0 and B16-F10 cells showing the inhibition of EGF-pHrodo endocytosis. […] Rlip was depleted by treating cells with Rlip-antisense, Rlip-shRNA, or 10 µM 2HF for 24 h as described in Materials and Methods section 4.8. Photographs were taken at identical exposures using 200× magnification.
Figure 4 Flow cytometry analysis of EGF-pHrodo endocytosis in control or Rlip depleted B16-F0 cells. Flow cytometry analysis of B16-F0 cells was performed 24 h after Rlip depletion by shRNA, RLIP76-antisense, or treatment with […] 2HF. Cells were stained with EGF-pHrodo. EGF-pHrodo-positive cells as shown on scatter plots were identified and gated based on forward and side scatter properties. The PE channel was used for red fluorescence to measure EGF-pHrodo positivity. […] Each flow cytometry analysis plot is a representative example of three independent experiments. […]
The effect of Rlip knockdown/depletion by shRNA, RLIP76-antisense (R508), or 2HF on endocytosis was studied in B16 melanoma cell lines. […] Slides were analyzed using a fluorescence microscope (Olympus America, Melville, NY, USA). […]
The effect of Rlip knockdown on endocytosis was further checked by flow cytometry. […] After 24 h, cells were trypsinized, washed with cold PBS, and counted. […]

The test system of the next test is SK-MEL-24 cells. In words: MTT cytotoxicity assay, SK-MEL-24. The test is classed as cell-based. As to conditions: Homo sapiens. The source says:
We studied the growth-inhibitory effects of 2HF on the B16-F0 and B16-F10 murine melanoma cell lines as well as on the SK-MEL-24 human melanoma cell line. B16-F10 and SK-MEL-24 have been shown in previous studies to be highly resistant to treatment and much more invasive than B16-F0 [32]. […] The absorption value measured upon reduction of the MTT dye by functional mitochondria is an indirect measure of cell number that cannot distinguish inhibited cell proliferation from apoptotic or necrotic cell death. By counting viable (trypan-blue dye-excluding) cells using a hemacytometer, we verified that 2HF did indeed cause cell death.
Figure 1 Mouse and human melanoma cell survival following 2′-hydroxyflavanone (2HF) treatment.
The IC50 of 2HF on B16-F0, B16-F10, and SK-MEL-24 cells was determined by MTT cytotoxicity assay. Cells were harvested and Trypan Blue dye exclusion test was used to determine the number of viable cells present in a cell suspension using a hemocytometer. The cell suspension was diluted to 5 × 10^4 cells/mL with Dulbecco’s Modified Eagle’s Medium (DMEM) complete medium and 5000 cells/well were plated in 96-well plates. After 24 h incubation at 37 °C, cells were treated with 2HF concentrations ranging from 0–200 µM (8 replicates per plate). After 48 or 72 h incubation, 40 µL of MTT (5 mg/mL) solution was added. After 4 h incubation, the plate was centrifuged at 700× g for 5 min and medium was aspirated completely. Then, 50 µL DMSO was added to each well to dissolve the purple precipitate on the rocking platform for about 15 min. The absorbance was then measured at 490 nm using a 96-well microplate reader (Spectramax Plus, Molecular Devices, Inc, San Jose, CA, USA).

Like-named read-outs stand apart in the source and are kept apart here.

As to `O=C1CC(c2ccccc2O)Oc2ccccc21` (stereo not drawn) [2HF, 2′-hydroxyflavanone], the “EGF-pHrodo endocytosis (fluorescence microscopy)” value in the test on B16-F0 cells is reported as “completely blocked”. Besides, the IC50 in the test on SK-MEL-24 cells (MTT, 72 h, mean ±SD, n = 5, read-out: IC50 at 72 h (growth/survival)) stood at 44 ± 6 µM; in the test on SK-MEL-24 cells (Table 1, agent alone, read-out: IC50), 44.9 ± 1.67 µM.
